Source: patent publication US20150105252A1, “SUBSTITUTED PYRAZOLES AS HERBICIDES” (E I DU PONT DE NEMOURS AND COMPANY, priority 2013, published 2015)

Key:
foxtail, giant [1] = assay: Test A postemergence; assay type: in vivo, Setaria faberii
In short: (§1)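 Visual injury ratings, 0 = no effect to 100 = complete control, taken about 10 days after treatment against untreated controls. Test chemicals, in a non-phytotoxic surfactant-containing solvent, were sprayed onto soil preemergence or onto one- to two-leaf plants (2–10 cm) postemergence, in loam–sand soil under greenhouse conditions.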

crabgrass, large [2] = assay: Test A postemergence; assay type: in vivo, Digitaria sanguinalis
In short: as §1

barnyardgrass [3] = assay: Test A postemergence; assay type: in vivo, Echinochloa crus-galli
In short: as §1

morningglory [4] = assay: Test A preemergence; assay type: in vivo, Ipomoea spp.; details: preemergence
In short: as §1

corn [5] = assay: Test A preemergence; assay type: in vivo, Zea mays; details: preemergence
In short: as §1

corn [6] = assay: Test A postemergence; assay type: in vivo, Zea mays
In short: as §1

velvetleaf [7] = assay: Test A preemergence; assay type: in vivo, Abutilon theophrasti; details: preemergence
In short: as §1

wheat [8] = assay: Test A postemergence; assay type: in vivo, Triticum aestivum
In short: as §1

crabgrass, large [9] = assay: Test A preemergence; assay type: in vivo, Digitaria sanguinalis; details: preemergence
In short: as §1

barnyardgrass [10] = assay: Test B flood; assay type: in vivo, Echinochloa crus-galli; details: 250 g ai/ha, visual rating on 0 to 100 scale (0 no effect, 100 complete control), 13 to 15 days
Procedure: (§2) Seeds selected from rice (Oryza sativa), sedge, umbrella (small-flower umbrella sedge Cyperus difformis), ducksalad (Heteranthera limosa), and barnyardgrass (Echinochloa crus-galli) were grown to the 2-leaf stage for testing. At time of treatment, test pots were flooded to 3 cm above the soil surface, treated by application of test compounds directly to the paddy water, and then maintained at that water depth for the duration of the test.
(§3) Treated plants and controls were maintained in a greenhouse for 13 to 15 days, after which time all species were compared to controls and visually evaluated. Plant response ratings, summarized in Table B, are based on a scale of 0 to 100 where 0 is no effect and 100 is complete control. A dash (-) response means no test result.

wheat [11] = assay: Test A preemergence; assay type: in vivo, Triticum aestivum; details: preemergence
In short: as §1

rice = assay: Test B flood; assay type: in vivo, Oryza sativa; details: 250 g ai/ha, visual rating on 0 to 100 scale (0 no effect, 100 complete control), 13 to 15 days
In short: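 Greenhouse assay lasting 13 to 15 days. Treatment was into water flooding pots 3 cm deep, at the 2-leaf stage, with that level sustained afterwards. Scores compare treated with control plants visually, 100 denoting complete control and 0 no effect; a dash marks no test result.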

velvetleaf [12] = assay: Test A postemergence; assay type: in vivo, Abutilon theophrasti
In short: as §1

sedge, umbrella = assay: Test B flood; assay type: in vivo, Cyperus difformis; details: 250 g ai/ha, visual rating on 0 to 100 scale (0 no effect, 100 complete control), 13 to 15 days
Procedure: as §2, §3

morningglory [13] = assay: Test A postemergence; assay type: in vivo, Ipomoea spp.
In short: as §1

barnyardgrass [14] = assay: Test A preemergence; assay type: in vivo, Echinochloa crus-galli; details: preemergence
In short: as §1

foxtail, giant [15] = assay: Test A preemergence; assay type: in vivo, Setaria faberii; details: preemergence
In short: as §1

pigweed [16] = assay: Test A postemergence; assay type: in vivo, Amaranthus retroflexus
In short: as §1

pigweed [17] = assay: Test A preemergence; assay type: in vivo, Amaranthus retroflexus; details: preemergence
In short: as §1

ducksalad = assay: Test B flood; assay type: in vivo, Heteranthera limosa; details: 250 g ai/ha, visual rating on 0 to 100 scale (0 no effect, 100 complete control), 13 to 15 days
Procedure: as §2, §3

[18] = Postemergence, 500 g ai/ha, visual rating after approx. 10 days, 0 to 100 scale (0 no effect, 100 complete control)
[19] = postemergence, 125 g ai/ha, about 10 days, visual rating on 0 to 100 scale (0 no effect, 100 complete control)
[20] = 125 g ai/ha, visual injury, 0 to 100 scale, approx. 10 days
[21] = 500 g ai/ha, visual injury after approx. 10 days, 0 to 100 scale (0 no effect, 100 complete control)
[22] = Postemergence, 500 g ai/ha, 0 to 100 scale (0 no effect, 100 complete control)
[23] = 125 g ai/ha, visual injury approx. 10 days after treatment

With `CCCNC(=O)c1cc(CC)n(Cc2cccc(C(F)(F)F)n2)n1` [Compound 88] the “Foxtail, Giant plant response rating” value (foxtail, giant [1]; [18]) was 0, the “Foxtail, Giant plant response rating” value (foxtail, giant [1]; [19]) was 0 and the “Crabgrass, Large plant response rating” value (crabgrass, large [2]; [18]) was 10. The “Crabgrass, Large plant response rating” value (crabgrass, large [2]; [19]) was 0, the “Barnyardgrass plant response rating” value (barnyardgrass [3]; Postemergence, 125 g ai/ha, 0 to 100 scale, 0 no effect, 100 complete control) was 0 and the “Barnyardgrass plant response rating” value (barnyardgrass [3]; [18]) was 0. The “Morningglory plant response rating” value (morningglory [4]; [20]) was 0, the “Morningglory plant response rating” value (morningglory [4]; [21]) was 10 and the “Corn plant response rating” value (corn [5]; [20]) was 0. The “Corn plant response rating” value (corn [5]; [21]) was 0, the “Corn plant response rating” value (corn [6]; [18]) was 10 and the “Corn plant response rating” value (corn [6]; [19]) was 0. The “Velvetleaf plant response rating” value (velvetleaf [7]; [20]) was 0, the “Velvetleaf plant response rating” value (velvetleaf [7]; [21]) was 0 and the “Wheat plant response rating” value (wheat [8]; [18]) was 0. For the same molecule, the “Wheat plant response rating” value (wheat [8]; [19]) was 0, the “Crabgrass, Large plant response rating” value (crabgrass, large [9]; [20]) was 0 and the “Crabgrass, Large plant response rating” value (crabgrass, large [9]; [21]) was 30. For the same molecule, the “Plant response rating, Barnyardgrass” value (barnyardgrass [10]) was 0, the “Wheat plant response rating” value (wheat [11]; [20]) was 0 and the “Wheat plant response rating” value (wheat [11]; [21]) was 0. For the same molecule, the “Plant response rating, Rice” value (rice) was 0, the “Velvetleaf plant response rating” value (velvetleaf [12]; [18]) was 10 and the “Velvetleaf plant response rating” value (velvetleaf [12]; [19]) was 0. The “Plant response rating, Sedge, Umbrella” value (sedge, umbrella) was 0, the “Morningglory plant response rating” value (morningglory [13]; [18]) was 10 and the “Morningglory plant response rating” value (morningglory [13]; [19]) was 10. For the same molecule, the “Barnyardgrass plant response rating” value (barnyardgrass [14]; [20]) was 0, the “Barnyardgrass plant response rating” value (barnyardgrass [14]; [21]) was 0 and the “Foxtail, Giant plant response rating” value (foxtail, giant [15]; [20]) was 0. The “Foxtail, Giant plant response rating” value (foxtail, giant [15]; [21]) was 0, the “Pigweed plant response rating” value (pigweed [16]; [18]) was 10 and the “Pigweed plant response rating” value (pigweed [16]; [19]) was 0. The “Pigweed plant response rating” value (pigweed [17]; [20]) was 0, the “Pigweed plant response rating” value (pigweed [17]; [21]) was 0 and the “Plant response rating, Ducksalad” value (ducksalad) was 0.
For `COCc1cc(C(=O)NC(C)C)nn1Cc1ccnc(C(F)(F)F)c1` [Compound 166], the “Foxtail, Giant plant response rating” value (foxtail, giant [1]; [22]) was 70, the “Foxtail, Giant plant response rating” value (foxtail, giant [1]; [19]) was 50 and the “Crabgrass, Large plant response rating” value (crabgrass, large [2]; [22]) was 80. For the same molecule, the “Crabgrass, Large plant response rating” value (crabgrass, large [2]; [19]) was 40, the “Barnyardgrass plant response rating” value (barnyardgrass [3]; [22]) was 90 and the “Barnyardgrass plant response rating” value (barnyardgrass [3]; [19]) was 30. For the same molecule, the “Morningglory plant response rating (0 to 100 scale)” value (morningglory [4]; [23]) was 100, the “Morningglory plant response rating” value (morningglory [4]; [21]) was 100 and the “Corn plant response rating (0 to 100 scale)” value (corn [5]; [23]) was 10. For the same molecule, the “Corn plant response rating” value (corn [5]; [21]) was 90, the “Corn plant response rating” value (corn [6]; [22]) was 80 and the “Corn plant response rating” value (corn [6]; [19]) was 30. For the same molecule, the “Velvetleaf plant response rating (0 to 100 scale)” value (velvetleaf [7]; [23]) was 60, the “Velvetleaf plant response rating” value (velvetleaf [7]; [21]) was 100 and the “Wheat plant response rating” value (wheat [8]; [22]) was 50. The “Wheat plant response rating” value (wheat [8]; [19]) was 0, the “Crabgrass, Large plant response rating (0 to 100 scale)” value (crabgrass, large [9]; [23]) was 100 and the “Crabgrass, Large plant response rating” value (crabgrass, large [9]; [21]) was 100. For the same molecule, the “Plant response rating, Barnyardgrass” value (barnyardgrass [10]) was 10, the “Wheat plant response rating (0 to 100 scale)” value (wheat [11]; [23]) was 10 and the “Wheat plant response rating” value (wheat [11]; [21]) was 90. The “Plant response rating, Rice” value (rice) was 10, the “Velvetleaf plant response rating” value (velvetleaf [12]; [22]) was 60 and the “Velvetleaf plant response rating” value (velvetleaf [12]; [19]) was 40. The “Plant response rating, Sedge, Umbrella” value (sedge, umbrella) was 80, the “Morningglory plant response rating” value (morningglory [13]; [22]) was 100 and the “Morningglory plant response rating” value (morningglory [13]; [19]) was 100. For the same molecule, the “Barnyardgrass plant response rating” value (barnyardgrass [14]; [20]) was 50, the “Barnyardgrass plant response rating” value (barnyardgrass [14]; [21]) was 100 and the “Foxtail, Giant plant response rating (0 to 100 scale)” value (foxtail, giant [15]; [23]) was 100. For the same molecule, the “Foxtail, Giant plant response rating” value (foxtail, giant [15]; [21]) was 100, the “Pigweed plant response rating” value (pigweed [16]; [22]) was 100 and the “Pigweed plant response rating” value (pigweed [16]; [19]) was 10. For the same molecule, the “Pigweed plant response rating (0 to 100 scale)” value (pigweed [17]; [23]) was 100, the “Pigweed plant response rating” value (pigweed [17]; [21]) was 100 and the “Plant response rating, Ducksalad” value (ducksalad) was 85.
